We go through eight compounds from patent publication US11945824B2, “Heterocyclic compounds as anti-viral agents” (priority 2020, dated 2024).

pEC50: −log10 of the molar value. Read-outs that look alike come from different tables or passages of the source. Where only a bound is given, the exact number is not on record here.

Experiment [1] deals with rHMPV-GFP (recombinant HMPV CAN97-83, MPV-GFP1). Description: HMPV antiviral assay (eGFP fluorescence in Vero E6 cells). It is filed as cell-based. The note with it: human metapneumovirus, Vero C1008, 120 h, read-out: rHMPV-GFP EC50. The procedure:
Method for HMPV Antiviral Assay
HMPV antiviral activity was evaluated using a recombinant version of HMPV CAN97-83 engineered to contain the coding sequence for enhanced green fluorescence protein (eGFP) in the 3′ end of the virus genome (MPV-GFP1, ViraTree). Vero E6 cells (ATCC #CCL-7) were seeded at a density of 12,000 cells/100 μL/well into 96-well cell plates (VENDOR) one day prior to the assay. On the day of screening, the cell culture medium was aspirated from the wells and cells were washed twice with serum-free Eagle's Modified Essential Medium (EMEM, ATCC #) containing 1% penicillin-streptomycin (Invitrogen) (SF-EMEM). Cell washes were performed by dispensing 100 μL SF-EMEM per well and immediately aspirating the wash medium from the well. Following the second wash step, serum-free OptiMEM (Invitrogen, Cat No.) (SF-OptiMEM) containing 0.5 μg/mL TPCK-Trypsin (VENDOR) and 1% penicillin-streptomycin was added to the cells at 50 μL/well. Compounds were added into the 96-well plates using a JANUS automated liquid handling system (VENDOR). Compounds were initially diluted 1:50 into an intermediate 96-well plate containing SF-OptiMEM prior to transfer to the assay plate (25 μL/well). Each of the test compounds were tested in duplicate wells at final concentrations starting from 8 μM or 2 μM using ½ stepwise dilutions for a total of 8 points. Virus infection was performed by preparing a working stock of MPV-GFP1 at a multiplicity of infection (MOI) equal to 0.05/25 μL and aliquoting 25 μL of virus inoculum to the compound and positive control wells. SF-OptiMEM was added (25 μL/well) to the appropriate wells to serve as a virus-free negative control for the assay. The final DMSO concentration of all wells is 0.5%. Plates were incubated at 32° C., 5% CO2 for 5 days. After 5 days incubation, eGFP fluorescence intensity was measured at […] using a Spectramax i3X plate reader (VENDOR).
Percent viral inhibition was calculated using the following equation: y=[[…](XQ/XP)]×100 Where XQ is the fluorescence intensity measured in a well containing recombinant MPV-GFP1-infected, compound-treated cells and XP is the average fluorescence intensity measured in the wells containing untreated cells infected with recombinant virus. EC50 values were then calculated by non-linear regression using a four-parameter curve logistic equation. The curve fit model employed was XLFit Dose Response One Site Model 200: y=(A+(B/(1+((x/C)^D)))) Where A is the minimum y value, B is the maximum y value, C is the log EC50 value, and D is the slope factor. The EC50 for each compound is listed in Table 2 and EC50 ranges are as follows: A<0.2 μM; B≥0.2 μM.

The subject of experiment [2] is Human RSV-A (“Long” strain). Description: RSV-A assay (CPE, ATPlite readout in Hep-2 cells). In kind it is cell-based. Particulars: human respiratory syncytial virus, read-out: Human RSV-A (“Long” strain) EC50. From the text:
Hep-2 cells, (originally derived from tumors grown in irradiated-cortisonised weanling rats that had been injected with epidermoid carcinoma tissue from a person's larynx, but later found to be indistinguishable from HeLa cells by PCR DNA analysis), were used for the culturing of genotype A, “Long” strain RSV. Flasks were inoculated with RSV and viral stocks were collected once cytopathic effect (CPE) was greater than 90%. Viral stocks in 25% sucrose media were snap frozen using liquid nitrogen to increase viral stability. Viral stock titers were quantified by tissue culture infectious dose 50% (TCID50) using 8,000 cells per well and 3-fold viral dilutions across a 96-well plate, cultured for 4 days. Viral stock titers were also quantified by a plaque forming unit assay, as described elsewhere.
Following extensive parameter testing, the final assay is run as follows: Hep-2 cells are seeded into the inner 60 wells of a 96-well plate at 8,000 cells per well in a volume of 50 μL using Growth Media (DMEM without phenol red, 1% L-Glut, 1% Penn/Strep, 1% nonessential amino acids, 10% heat-inactivated FBS). 2-fold serial dilutions of control and test compounds are added to the wells in duplicate in a total volume of 25 μL. Viral stock is then added to the wells at a multiplicity of infection (MOI) of 0.1 in a volume of 25 μL, bringing the total volume of each well to 100 μL. The MOI is calculated using the PFU/mL, or TCID50 if unavailable. Each 96-well plate has a control column of 6 wells with cells and virus but no compound (negative control, max CPE), a column with cells but no compound or virus (positive control, minimum CPE), and a column with no cells or virus or compound (background plate/reagent control). The control wells with cells but no virus are given an additional 25 μL of growth media containing an equal quantity of sucrose as those wells receiving the viral stock in order to keep consistent in media and volume conditions. The outer wells of the plate are filled with 125 μL of moat media (DMEM, 1% Penn/Strep) to act as a thermal and evaporative moat around the test wells. Following a 5-day incubation period, the plates are read using ATPlite (50 uL added per well), which quantifies the amount of ATP (a measure of cell health) present in each well. Assay plates are read using the Envision luminometer. […] EC50 ranges are as follows: A<0.2 μM; B≥0.2 μM.

The mark [3] stands for this setting: 120 h, Hep-2 cells, MOI 0.1, 5-day incubation, ATPlite.

As for `COc1cc(C(=O)NC[C@](O)(c2cc3c(c(-c4ccc(F)cc4)n2)OC[C@]3(C)Cc2ncc[nH]2)C(F)(F)F)cc2cccnc12` [Example 23, N-((S)-2-((R)-3-((1H-imidazol-2-yl)methyl)-7-(4-fluorophenyl)-3-methyl-2,3-dihydrofuro[2,3-c]pyridin-5-yl)-3,3,3-trifluoro-2-hydroxypropyl)-8-methoxyquinoline-6-carboxamide], the pEC50 in experiment [1] and in experiment [2] (setting [3]) was more than 6.70 throughout.
As for `COc1cc(C(=O)NC[C@](O)(c2cc3c(c(-c4ccc(F)cc4)n2)OC[C@]3(C)c2ncc[nH]2)C(F)(F)F)cc2cccnc12` [Example 20, 8-methoxy-N-((S)-3,3,3-trifluoro-2-((S)-7-(4-fluorophenyl)-3-(1H-imidazol-2-yl)-3-methyl-2,3-dihydrofuro[2,3-c]pyridin-5-yl)-2-hydroxypropyl)quinoline-6-carboxamide], the pEC50 (usually the EC50 on a negative log10 scale, so that one unit is a factor of ten) in experiment [1] was less than 6.70; in experiment [2] (setting [3]), more than 6.70.
For `COc1cc(C(=O)NC[C@](O)(c2cc3c(c(-c4ccc(F)cc4)n2)OC[C@]3(C)n2ccnn2)C(F)(F)F)ccc1OC1CC1` [Example 11, 4-cyclopropoxy-3-methoxy-N-((S)-3,3,3-trifluoro-2-((R)-7-(4-fluorophenyl)-3-methyl-3-(1H-1,2,3-triazol-1-yl)-2,3-dihydrofuro[2,3-c]pyridin-5-yl)-2-hydroxypropyl)benzamide], in that order: less than 6.70 and more than 6.70.
As to `COc1cc(C(=O)NC[C@](O)(c2cc3c(c(-c4ccc(F)cc4)n2)OC[C@]3(C)n2ccnc2)C(F)(F)F)ccc1OC1CC1` [Example 9, 4-cyclopropoxy-3-methoxy-N-((S)-3,3,3-trifluoro-2-((R)-7-(4-fluorophenyl)-3-(1H-imidazol-1-yl)-3-methyl-2,3-dihydrofuro[2,3-c]pyridin-5-yl)-2-hydroxypropyl)benzamide], the results for the pEC50 in experiment [1] and in experiment [2] (setting [3]) were less than 6.70 and more than 6.70, respectively.
For `COc1cc(C(=O)NC[C@](C)(O)c2cc3c(c(-c4ccc(F)cc4)n2)OC[C@]3(C)n2cnnc2)ccc1OC1CC1` [Example 13, 4-cyclopropoxy-N-((S)-2-((R)-7-(4-fluorophenyl)-3-methyl-3-(4H-1,2,4-triazol-4-yl)-2,3-dihydrofuro[2,3-c]pyridin-5-yl)-2-hydroxypropyl)-3-methoxybenzamide], in that order: less than 6.70 and more than 6.70.
Turning to `COc1cc(C(=O)NC[C@](O)(c2cc3c(c(-c4ccc(F)cc4)n2)OC[C@@]3(n2cnnc2)C(F)(F)F)C2CC2)ccc1OC1CC1` [Example 3, 4-cyclopropoxy-N-((S)-2-cyclopropyl-2-((R)-7-(4-fluorophenyl)-3-(4H-1,2,4-triazol-4-yl)-3-(trifluoromethyl)-2,3-dihydrofuro[2,3-c]pyridin-5-yl)-2-hydroxyethyl)-3-methoxybenzamide], the pEC50 is less than 6.70 in experiment [1] and more than 6.70 in experiment [2] (HEp-2, 120 h).
Take `C[C@]1(c2nc3ccccc3[nH]2)COc2c1cc([C@@](O)(CNC(=O)c1cc(OC3CC3)c3ncccc3c1)C(F)(F)F)nc2-c1ccc(F)cc1` [Example 21, N-((S)-2-((S)-3-(1H-benzo[d]imidazol-2-yl)-7-(4-fluorophenyl)-3-methyl-2,3-dihydrofuro[2,3-c]pyridin-5-yl)-3,3,3-trifluoro-2-hydroxypropyl)-8-cyclopropoxyquinoline-6-carboxamide]: the pEC50 in experiment [1] is less than 6.70; in experiment [2] (setting [3]) it was more than 6.70.
Take `C[C@]1(c2cc[nH]n2)COc2c1cc([C@@](O)(CNC(=O)c1cc(OC3CC3)c3ncccc3c1)C(F)(F)F)nc2-c1ccc(F)cc1` [Example 22, 8-cyclopropoxy-N-((S)-3,3,3-trifluoro-2-((S)-7-(4-fluorophenyl)-3-methyl-3-(1H-pyrazol-3-yl)-2,3-dihydrofuro[2,3-c]pyridin-5-yl)-2-hydroxypropyl)quinoline-6-carboxamide]: the pEC50 in experiment [1] is less than 6.70; in experiment [2] (setting [3]), more than 6.70.
